Assay results from patent US11980772B2, “Method of photodynamic therapy (PDT) for bladder cancer” (priority 2015, dated 2024).
Values joined by “and” are separate entries in the source; they are usually repeats but may differ in a detail not shown here. Identical values can stand only once. “Also recorded” adds a separate entry of the source.

Legend:
MIBC = conditions: neoadjuvant cisplatin-containing chemotherapy; cited from earlier work
bladder cancer [1] = conditions: cited from earlier work
[2] = test system: patient-derived bladder tumor; assay: Establishing in vitro primary cell cultures from bladder tumors resected after HAL/blue light TUR; assay type: cell-based, human; conditions: HAL/blue light group; blue light 1.5 to 12.5 mW/cm^2, 0.2 to 15.0 J/cm^2
Protocol: A solution of HAL (Hexvix®) was instilled into the bladder of patients through a catheter and was left in the bladder for about 1 hour. If the patient could not retain the composition for about 1 hour, at least about 1 hour was allowed to pass from the instillation of Hexvix® to the start of exposing the inside of the bladder to light. After evacuation of Hexvix®, a commercially available blue-light cystoscope was inserted into the bladder and a TUR was carried out by exposing the inside of the bladder to white light for the visual inspection, subsequent blue light exposure for fluorescence detection of bladder cancer lesions, resection of the detected lesions under white light and monitoring of the completeness of the resection by use of blue light. Blue light was provided at a fluence rate of 1.5 to 12.5 mW/cm^2 and a light dose of 0.2 to 15.0 J/cm^2 […] at a fluence rate of 3.0 to 22.0 mW/cm^2 and a light dose of 0.4 to 26.5 J/cm^2.
The resected bladder tumors were processed according to methods known in the art and primary cell cultures were established from said patient-derived bladder tumor under appropriate conditions in culture medium. […]

[3] = test system: non-muscle invasive papillary bladder cancer (NMIBC); assay: Phase III multicenter study, tumor recurrence after HAL blue light cystoscopy/TUR; assay type: in vivo, human; conditions: 9 months follow-up; for Tumor recurrence rate, All: HAL group (n = 271)
Protocol: A prospective, randomized, comparative, controlled phase III multicenter study was carried out in patients with non-muscle invasive papillary bladder cancer (NMIBC). The study population comprised 551 patients which were randomized into two groups (see below). The groups were similar in age, gender, race, bladder cancer history and prior intravesical therapy.
HAL group: 271 patients. The method of the invention was carried out as follows: A solution of HAL (Hexvix®) was instilled into the bladder of patients through a catheter and was left in the bladder for about 1 hour. If the patient could not retain the composition for about 1 hour, at least about 1 hour was allowed to pass from the instillation of Hexvix® to the start of exposing the inside of the bladder to light.
After evacuation of Hexvix®, cystoscopy was carried out with a commercially available cystoscope (blue and white light). The inside of the bladder was first exposed to white light and visually assessed, followed by exposure to blue light to detect cancerous lesions in the bladder. Transurethral resection (TUR) of the detected lesions was carried out under white light and completion of the resection was assessed under blue light.
White light group: 280 patients. Cystoscopy and TUR of bladder cancer under white light only, no HAL.
Patients from both groups with histologically confirmed Ta or T1 lesions were followed up by white light cystoscopy after 3, 6 and 9 months. All tumor recurrences during the 9 months follow-up period were histologically confirmed.
50 patients in the HAL group (18.5%) and 55 patients in the white light group (19.6%) received BCG treatment during the 9 months follow-up period. BCG (Bacillus Calmette-Guérin) is an immunotherapy agent for the treatment of bladder cancer. It is usually repeatedly instilled into the bladder.
Mitomycin is a chemotherapeutic agent for the treatment of bladder cancer. It may be instilled after TUR (single instillation) to e.g. prevent tumor cell seeding, i.e. re-attachment to the bladder wall of tumor cells which were dislocated during resection. Mitomycin was administered after TUR to 16 patients in the HAL group (5.9%) and to 20 patients in the white light group (7.1%).

bladder cancer [4] = conditions: patients with HAL-guided TUR prior to cystectomy, Kaplan-Meier, cited from earlier work
[5] = test system: superficial bladder tumors (rat bladder carcinoma cell line); assay: PDT with HAL and blue light in orthotopic rat bladder tumor model; assay type: in vivo; conditions: HAL 2 mg/ml (8 mM), 1 hour
Protocol: A rat bladder carcinoma cell line was used in these experiments to establish superficial bladder tumors in Female Fischer rats weighing 150-175 g as described in Francois, et al., J. Urol. 190(2), 2013, 731-736. The animals were used in the experiments 5 days after tumor cell inoculation.
Lyophilized HAL (in the form of Hexvix® powder) was dissolved in PBS to a final concentration of 2 mg/ml (8 mM). 0.5 ml of the solution was instilled into the rat bladder and was left in the bladder for about 1 hour. After evacuation of the HAL solution, 0.5 ml of PBS was instilled into the bladder and whole bladder irradiation with blue light at a fluence rate of 3.5 or 7.0 mW/cm^2 was performed using a 170 mW Modulight laser model ML 6500-405 delivering light at a wavelength of 401 nm, coupled to a fiber with a cylindrical diffuser (1×5 mm) model RD05/500/800 (Medlight, Ecublens, Switzerland) placed in a central position in the bladder. Rats received a blue light dose of 4.0 J/cm^2 (fluence rate 3.5 mW/cm^2) or 7.5 J/cm^2 (fluence rate 7.0 mW/cm^2)
For control, no Hexvix was instilled and only blue light irradiation was carried out at the aforementioned fluence rates/light doses.
The rats were sacrificed 48 hours after illumination by an overdose of pentobarbital. […]

bladder cancer [6] = conditions: 5-ALA instilled, red light 633 nm, 30 and 50 J/cm^2; cited from earlier work
bladder cancer [7] = conditions: 5-ALA PDT after mitomycin, red laser light 635 nm, 18 mW/cm^2; cited from earlier work
bladder cancer [8] = conditions: cited from earlier work; remark: listed apart in the source

For `N.N.[Cl][Pt][Cl]` [cisplatin], the “absolute improvement in survival at 5 years” value (MIBC) is given as 5%.
In the case of `CCCCCCOC(=O)CCC(=O)CN` [HAL, n-hexyl 5-amino-4-oxo-pentanoate], the “patients tumor-free at 21 months” value (bladder cancer [1]; 2 of 17 patients) is listed as 11.8%, the “patients tumor-free at 9 months” value (bladder cancer [1]; 4 of 17 patients) is listed as 23.5% and the “patients with severe adverse effects” value (bladder cancer [1]; 4 patients of 17) is listed as 23.5%. For the same compound, the “patients tumor-free at 6 months” value (bladder cancer [1]; 9 of 17 patients) was 52.9%, the “number of adverse effects reported” value (bladder cancer [1]; HAL 8 mM and 16 mM, white light 25-100 J/cm^2, 3 PDTs, 17 patients) was 128 and the “patients with adverse effects” value (bladder cancer [1]; HAL 8 mM and 16 mM, white light, 3 PDTs) was “about 88%”. For the same compound, the “number of severe adverse effects reported” value (bladder cancer [1]; in 4 patients, 2 considered to relate to the PDT) was 7, the “establishment of in vitro primary cell cultures from resected bladder tumors” value [2] was “No in vitro primary cell cultures could be established” and the “Tumor recurrence rate, All” value ([3]; Table 1 and text) was 42.7% and 47.2%. The “Tumor recurrence rate, All” value ([3]; Table 2) was 47.2%, the “Tumor recurrence rate, Received BCG and/or mitomycin” value ([3]; HAL group) was 41.5% and the “Tumor recurrence rate, Received no BCG and/or mitomycin” value ([3]; HAL group) was 49.0%. For the same compound, the “Tumor recurrence rate, No BCG” value ([3]; HAL group, patients who did not receive BCG) was 49.3%, the “Tumor recurrence rate, Received BCG” value ([3]; HAL group, patients who received BCG) was 38.0% and the “3-year overall survival (OS)” value (bladder cancer [4]; 56.6% with white light) was 65.0%. For the same compound, the “3-year recurrence-free survival (RFS)” value (bladder cancer [4]; 58.2% with white light TUR alone) was 69.8%, the “bladder histology 48 hours after illumination (PDT effect)” value ([5]; blue light 3.5 mW/cm^2, 4 J/cm^2, n=2, one animal (50%) each) was “no inflammation, persistent and chorion infiltrating tumors; also recorded: looked less compact and the superficial layer of said tumor was destroyed” and the “bladder histology 48 hours after illumination (PDT effect)” value ([5]; blue light 7.0 mW/cm^2, 7.5 J/cm^2, n=2) was “increased tissue thickness/inflammation (both signs of PDT effect) and disintegrating/less compact tumor tissue”.
In the case of `NCC(=O)CCC(=O)O` [5-ALA, 5-aminolevulinic acid], the “patients whose irritating urinary symptoms did not resolve before 2 weeks” value (bladder cancer [6]) is listed as 13%, the “side effects in the form of irritating urinary symptoms, occurrence” value (bladder cancer [6]) is listed as “occurred in all patients” and the “light dose considered the upper limit of tolerability in terms of side effects” value (bladder cancer [7]) is listed as 25 J/cm^2. For the same compound, the “complaints of urinary frequency and urgency, occurrence” value (bladder cancer [8]; 5-ALA, white light 100 J/cm^2, 12 patients treated) was “all patients complained about urinary frequency and urgency”, the “patients whose symptoms persisted for 3 weeks” value (bladder cancer [8]; of 12 patients treated) was 5 patients and the “patients whose symptoms subsided within a week” value (bladder cancer [8]; of 12 patients treated) was 7 patients.
